Where two headings read alike, the source gives them in different places.

In one data set the test system is A549. Nature of the data set: Cell proliferation-inhibiting activity (ATP in viable cells, CellTiter-Glo), A549. In kind it is cell-based, human. Conditions: A549, 96 h, read-out: A549 IC50.
A short description of data set [1]: Human liver microsome stability. The format is in vitro ADME. As to conditions: human liver microsomes, pH 7.4.
The next data set concerns the target T1, BRAF (Homo sapiens, UniProt P15056).
T1 construct: purchased Eurofins Genomics KK; (BRAF); Thermo Fisher Scientific Inc. (MEK1)
The experiment in a line: BRAF-inhibiting activity, time-resolved fluorescence-fluorescence resonance energy transfer assay. The format is biochemical. On the procedure:
The BRAF-inhibiting activity of the compounds listed in Table 3 below was evaluated by the time-resolved fluorescence-fluorescence resonance energy transfer assay as described below.

A further data set deals with Calu-6. Nature of the data set: Cell proliferation-inhibiting activity (ATP in viable cells, CellTiter-Glo), Calu-6. The format is cell-based, human. Conditions: Calu-6, 96 h, read-out: Calu-6 IC50.
Another data set addresses T2, MEK1 (Homo sapiens, UniProt Q02750).
T2 construct: purchased Thermo Fisher Scientific Inc. (MEK1, CRAF); Carna Biosciences, Inc. (ERK2)
The experiment in a line: MEK1-inhibiting activity, fluorescent polarization method (CRAF/MEK1/ERK2 cascade, IMAP). The format is biochemical. As to conditions: Table 3; read-out: MEK1 IC50. The method, then:
The MEK1-inhibiting activity of the compounds listed in Table 3 below were evaluated by the fluorescent polarization method as described below.

A further data set relates to NCI-H2122. Nature of the data set: Cell proliferation-inhibiting activity (ATP in viable cells, CellTiter-Glo), NCI-H2122. Conditions: NCI-H2122, 96 h, read-out: NCI-H2122 IC50. The format is cell-based, human.
[2] abbreviates: human lung cancer cells, 4 days.

T2 sequence (Q02750 whole entry): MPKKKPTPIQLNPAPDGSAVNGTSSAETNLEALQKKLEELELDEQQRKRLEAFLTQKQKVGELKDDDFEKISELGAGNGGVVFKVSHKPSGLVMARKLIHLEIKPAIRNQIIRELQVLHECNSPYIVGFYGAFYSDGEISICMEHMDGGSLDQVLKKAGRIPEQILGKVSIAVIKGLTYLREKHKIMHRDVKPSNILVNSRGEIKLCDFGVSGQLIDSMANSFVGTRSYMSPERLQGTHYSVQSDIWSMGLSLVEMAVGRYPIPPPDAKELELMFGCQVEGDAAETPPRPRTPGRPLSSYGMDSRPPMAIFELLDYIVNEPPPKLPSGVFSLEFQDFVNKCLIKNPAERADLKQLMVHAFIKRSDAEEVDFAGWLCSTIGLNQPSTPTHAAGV
T1 sequence (P15056 417-766 limits assumed): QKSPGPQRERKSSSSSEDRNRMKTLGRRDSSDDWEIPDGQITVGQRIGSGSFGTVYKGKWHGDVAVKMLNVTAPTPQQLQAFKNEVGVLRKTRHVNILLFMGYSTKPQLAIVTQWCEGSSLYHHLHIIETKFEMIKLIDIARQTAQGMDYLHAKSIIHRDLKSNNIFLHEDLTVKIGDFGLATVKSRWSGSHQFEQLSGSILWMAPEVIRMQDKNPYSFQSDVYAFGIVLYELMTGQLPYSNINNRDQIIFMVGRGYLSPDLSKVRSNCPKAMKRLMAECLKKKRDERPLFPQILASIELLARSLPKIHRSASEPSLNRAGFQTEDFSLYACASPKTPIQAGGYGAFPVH

Regarding `Cn1c(Nc2ccc(I)cc2F)c(C(=O)NC2CC2)cc(Cc2cccc(NS(=O)(=O)C3(C)CC3)c2F)c1=O` [Compound K-11, N-Cyclopropyl-2-(2-fluoro-4-iodoanilino)-5-[[2-fluoro-3-[(1-methylcyclopropyl)sulfonylamino]phenyl]methyl]-I-methyl-6-oxopyridine-3-carb oxamide], the half-inhibitory concentration (IC50) stood at 93 nM with A549 (setting [2]); 15 nM on BRAF (read-out: BRAF IC50; Table 3); 230 nM with Calu-6 (setting [2]); 278 nM at MEK1; 85 nM with NCI-H2122 (setting [2]). Moreover, the intrinsic metabolic clearance (microsomal CLint) at 0.99 µM in data set [1] was found to be 437 µL/min/mg.

For the molecule `CNS(=O)(=O)Nc1nccc(Cc2cc(C(=O)NOC(C)(C)C)c(Nc3ccc(I)cc3F)c(F)c2F)c1F` [Compound A-8, 3,4-difluoro-2-(2-fluoro-4-iodoanilino)-5-[[3-fluoro-2-(methylsulfamoylamino)pyridin-4-yl]methyl]-N-[(2-methylpropan-2-yl)oxy]benz amide], the IC50 in the data set on A549 (setting [2]) was determined as 0.4 nM; at BRAF (read-out: BRAF IC50; Table 3), 4 nM; in the data set with Calu-6 (setting [2]), 2 nM; on MEK1 it was 3 nM; in the data set with NCI-H2122 (setting [2]), 0.1 nM. In data set [1], this molecule had a microsomal CLint at 0.99 µM of 33 µL/min/mg.

For the molecule `CONC(=O)c1cc(Cc2ccnc(NS(=O)(=O)NC3(C)CCC3)c2F)c(F)c(F)c1Nc1ccc(I)cc1F` [Compound A-15, 3,4-difluoro-2-(2-fluoro-4-iodoanilino)-5-[[3-fluoro-2-[(1-methylcyclobutyl)sulfamoylamino]pyridin-4-yl]methyl]-N-methoxybenzamide], the half-maximal inhibitory concentration (IC50) in the data set on A549 (setting [2]) amounted to 2 nM; on BRAF (read-out: BRAF IC50; Table 3), 4 nM; in the data set with Calu-6 (setting [2]), 5 nM; at MEK1 it was 8 nM; in the data set on NCI-H2122 (setting [2]), 1 nM. Also, the microsomal CLint at 0.99 µM in data set [1] worked out at 57 µL/min/mg.

Regarding `Cn1c(Nc2ccc(I)cc2F)c(C(N)=O)cc(Cc2cccc(NS(=O)(=O)C3(C)CC3)c2F)c1=O` [Compound K-6, 2-(2-Fluoro-4-iodoanilino)-5-[[2-fluoro-3-[(1-methylcyclopropyl)sulfonylamino]phenyl]methyl]-1-methyl-6-oxopyridine-3-carboxamide], the concentration for half-maximal inhibition (IC50) amounted to 25 nM in the data set on A549 (setting [2]); 15 nM at BRAF (read-out: BRAF IC50; Table 3); 83 nM with Calu-6 (setting [2]); 227 nM on MEK1; 21 nM in the data set on NCI-H2122 (setting [2]). The molecule also displayed a microsomal CLint at 0.99 µM in data set [1] of 499 µL/min/mg.

Turning to `CC(C)(C)ONC(=O)c1cc(Cc2cccc(NS(=O)(=O)C3(C)CC3)c2F)c(F)c(F)c1Nc1ccc(I)cc1F` [Compound E-6, 3,4-Difluoro-2-(2-fluoro-4-iodoanilino)-5-[[2-fluoro-3-[(1-methylcyclopropyl)sulfonylamino]phenyl]methyl]-N-[(2-methylpropan-2-yl)oxy]be nzamide], the IC50 turned out to be 8 nM in the data set on A549 (setting [2]); 17 nM at BRAF (read-out: BRAF IC50; Table 3); 28 nM with Calu-6 (setting [2]); 34 nM on MEK1; 6 nM in the data set on NCI-H2122 (setting [2]). The intrinsic clearance (microsomal CLint) at 0.99 µM in data set [1] was 105 µL/min/mg.

With `CNS(=O)(=O)Nc1nccc(Cc2cc(C(=O)NOCCO)c(Nc3ccc(I)cc3F)c(F)c2F)c1F` [Compound B-1, 3,4-difluoro-2-(2-fluoro-4-iodoanilino)-5-[[3-fluoro-2-(methylsulfamoylamino)pyridin-4-yl]methyl]-N-(2-hydroxyethoxy)benzamide], the IC50 turned out to be 6 nM in the data set on A549 (setting [2]); 5 nM at BRAF (read-out: BRAF IC50; Table 3); 11 nM with Calu-6 (setting [2]); 2 nM at MEK1; 2 nM with NCI-H2122 (setting [2]). This molecule also returned a microsomal CLint at 0.99 µM in data set [1] of 15 µL/min/mg.

With `COCC1(S(=O)(=O)Nc2cccc(Cc3cc(C(=O)NOC(C)(C)C)c(Nc4ccc(I)cc4F)c(F)c3F)c2F)CC1` [Compound E-4], the IC50 in the data set on A549 (setting [2]) is 6 nM; on BRAF (read-out: BRAF IC50; Table 3), 11 nM; in the data set on Calu-6 (setting [2]), 26 nM; at MEK1, 131 nM; with NCI-H2122 (setting [2]) it was 5 nM. For the same molecule, in data set [1], the microsomal CLint at 0.99 µM worked out at 168 µL/min/mg.

As to `NC(=O)c1cc(Cc2ccnc(NS(N)(=O)=O)c2F)c(F)c(F)c1Nc1ccc(I)cc1F` [Compound B-10, 3,4-Difluoro-2-(2-fluoro-4-iodoanilino)-5-[[3-fluoro-2-(sulfamoylamino)pyridin-4-yl]methyl]benzamide], the IC50 amounted to 72 nM in the data set with A549 (setting [2]); 11 nM at BRAF (read-out: BRAF IC50; Table 3); 33 nM in the data set with Calu-6 (setting [2]); 22 nM at MEK1; 8 nM in the data set on NCI-H2122 (setting [2]). This molecule returned a microsomal CLint at 0.99 µM in data set [1] of 3 µL/min/mg.

As to `CNS(=O)(=O)Nc1nccc(Cc2cc(C(N)=O)c(Nc3ccc(C4CC4)cc3F)c(F)c2F)c1F` [Compound A-1, 2-(4-cyclopropyl-2-fluoroanilino)-3,4-difluoro-5-[[3-fluoro-2-(methylsulfamoylamino)pyridin-4-yl]methyl]benzamide], the IC50 in the data set with A549 (Homo sapiens) was determined as 26 nM; at BRAF (Table 3; read-out: BRAF IC50), 1 nM; in the data set with Calu-6 (Homo sapiens), 64 nM; at MEK1 it was 17 nM; in the data set with NCI-H2122 (Homo sapiens), 5 nM. Also, the microsomal CLint at 0.99 µM in data set [1] was determined as 1 µL/min/mg.

Consider `COCCNS(=O)(=O)Nc1nccc(Cc2cc(C(N)=O)c(Nc3ccc(I)cc3F)c(F)c2F)c1F` [Compound A-33, 3,4-difluoro-2-(2-fluoro-4-iodoanilino)-5-[[3-fluoro-2-(2-methoxyethylsulfamoylamino)pyridin-4-yl]methyl]benzamide], for which the IC50 in the data set on A549 (setting [2]) was determined as 27 nM; on BRAF (read-out: BRAF IC50; Table 3) it was 2 nM; with Calu-6 (setting [2]), 68 nM; on MEK1 it was 10 nM; in the data set with NCI-H2122 (setting [2]), 8 nM. In data set [1], this molecule came in with an intrinsic metabolic clearance (microsomal CLint) at 0.99 µM of 6 µL/min/mg.

Consider `CC(C)ONC(=O)c1cc(Cc2ccnc(NS(=O)(=O)NC3(C)CCC3)c2F)c(F)c(F)c1Nc1ccc(I)cc1F` [Compound A-12, 3,4-Difluoro-2-(2-fluoro-4-iodoanilino)-5-[[3-fluoro-2-[(1-methylcyclobutyl)sulfamoylamino]pyridin-4-yl]methyl]-N-propan-2-yloxybenzamide], for which the IC50 was 6 nM in the data set on A549 (setting [2]); 6 nM at BRAF (read-out: BRAF IC50; Table 3); 18 nM in the data set with Calu-6 (setting [2]); 13 nM at MEK1; 5 nM in the data set with NCI-H2122 (setting [2]). For the same molecule, in data set [1], the microsomal CLint at 0.99 µM came out at 121 µL/min/mg.

For `CC(C)S(=O)(=O)Nc1cccc(Cc2cc(C(N)=O)c(Nc3ccc(I)cc3F)c(F)c2F)c1F` [Compound E-24, 3,4-Difluoro-2-(2-fluoro-4-iodoanilino)-5-[[2-fluoro-3-(propan-2-ylsulfonylamino)phenyl]methyl]benzamide], the IC50 was 26 nM with A549 (setting [2]); 20 nM at BRAF (read-out: BRAF IC50; Table 3); 63 nM in the data set with Calu-6 (setting [2]); 189 nM on MEK1; 5 nM in the data set with NCI-H2122 (setting [2]). For the same molecule, in data set [1], the microsomal CLint at 0.99 µM turned out to be 10 µL/min/mg.

`NC(=O)c1cc(Cc2cccc(NS(=O)(=O)C3CCOCC3)c2F)c(F)c(F)c1Nc1ccc(I)cc1F` [Compound E-23, 3,4-difluoro-2-(2-fluoro-4-iodoanilino)-5-[[2-fluoro-3-(oxan-4-ylsulfonylamino)phenyl]methyl]benzamide]: the IC50 with A549 (setting [2]) is 31 nM; on BRAF (read-out: BRAF IC50; Table 3), 6 nM; in the data set with Calu-6 (setting [2]), 47 nM; on MEK1, 61 nM; in the data set on NCI-H2122 (setting [2]), 4 nM. For the same molecule, the intrinsic metabolic clearance (microsomal CLint) at 0.99 µM in data set [1] worked out at 98 µL/min/mg.

As to `Cn1c(Nc2ccc(I)cc2F)c(C(=O)NOC(C)(C)C)cc(Cc2ccnc(NS(=O)(=O)NC3CC3)c2F)c1=O` [Compound J-11, 5-[[2-(Cyclopropylsulfamoylamino)-3-fluoropyridin-4-yl]methyl]-2-(2-fluoro-4-iodoanilino)-1-methyl-N-[(2-methylpropan-2-yl)oxy]-6-oxopyr idine-3-carboxamide], the 50% inhibitory concentration (IC50) was 13 nM in the data set with A549 (setting [2]); 17 nM at BRAF (read-out: BRAF IC50; Table 3); 27 nM with Calu-6 (setting [2]); 48 nM on MEK1; 6 nM in the data set on NCI-H2122 (setting [2]). Further, the microsomal CLint at 0.99 µM in data set [1] is 47 µL/min/mg.

Regarding `COCCNS(=O)(=O)Nc1nccc(Cc2cc(C(=O)NOC)c(Nc3ccc(I)cc3F)c(F)c2F)c1F` [Compound A-14, 3,4-Difluoro-2-(2-fluoro-4-iodoanilino)-5-[[3-fluoro-2-(2-methoxyethylsulfamoylamino)pyridin-4-yl]methyl]-N-methoxybenzamide], the IC50 was 11 nM in the data set with A549 (setting [2]); 3 nM on BRAF (read-out: BRAF IC50; Table 3); 27 nM in the data set with Calu-6 (setting [2]); 2 nM on MEK1; 1 nM in the data set with NCI-H2122 (setting [2]). Besides, the intrinsic clearance (microsomal CLint) at 0.99 µM in data set [1] was determined as 39 µL/min/mg.

As to `CNS(=O)(=O)Nc1nccc(Cc2cc(C(N)=O)c(Nc3ccc(I)cc3F)n(C)c2=O)c1F` [Compound J-1, 2-(2-fluoro-4-iodoanilino)-5-[[3-fluoro-2-(methylsulfamoylamino)pyridin-4-yl]methyl]-1-methyl-6-oxopyridine-3-carboxamide], the IC50 in the data set with A549 (setting [2]) was determined as 38 nM; at BRAF (read-out: BRAF IC50; Table 3) it was 4 nM; in the data set on Calu-6 (setting [2]), 29 nM; at MEK1 it was 58 nM; in the data set with NCI-H2122 (setting [2]), 8 nM. This molecule came in with a microsomal CLint at 0.99 µM in data set [1] of 11 µL/min/mg.

`CNS(=O)(=O)Nc1nccc(Cc2cc(C(N)=O)c(Nc3ccc(I)cc3F)cc2F)c1F` [Compound I-1, 4-fluoro-2-(2-fluoro-4-iodoanilino)-5-[[3-fluoro-2-(methylsulfamoylamino)pyridin-4-yl]methyl]benzamide]: the IC50 with A549 (setting [2]) was 5 nM; at BRAF (read-out: BRAF IC50; Table 3), 3 nM; in the data set with Calu-6 (setting [2]), 15 nM; at MEK1, 25 nM; with NCI-H2122 (setting [2]) it was 3 nM. For the same molecule, the microsomal CLint at 0.99 µM in data set [1] worked out at 19 µL/min/mg.

The values are drawn from patent EP4725941A1, “ARYLAMIDE DERIVATIVE HAVING ANTITUMOR ACTIVITY” (priority 2020, dated 2021).
